# Results reported in ChEMBL document CHEMBL5131421, “Cadinane Sesquiterpenoids and Their Glycosides from Alangium chinense That Inhibit Spontaneous Calcium Oscillations” (J Nat Prod, 2022).
# Assay: Neuroprotective activity in primary neocortical neuron (unknown origin) assessed as inhibition of 4-AP-induced spontaneous calcium channel oscillation frequency measured after 15 min by Fluo-4AM dye based fluorescence assay
# Assay type: functional, cell-based
# Conditions: Primary neocortical neuron, 0.25 h
row,Structure (SMILES),IC50
1,Cc1cc2c(cc1O)C(=O)[C@](C)(c1ccc(O)c(O)c1)C=C2C(C)C,1.91 µM
2,Cc1cc2c(cc1O)C(C)(c1ccc(O)c(O)c1)C(=O)C=C2C(C)C (racemic),3.45 µM
3,Cc1cc2c(cc1O)C(=O)[C@@](C)(c1ccc(O)c(O)c1)C=C2C(C)C,2.58 µM
4,Cc1cc2c(cc1O)[C@@](C)(c1ccc(O)c(O)c1)C(=O)C=C2C(C)C,3.09 µM
5,Cc1cc2c(cc1O)[C@](C)(c1ccc(O)c(O)c1)C(=O)C=C2C(C)C,2.05 µM
6,Cc1cc2c(cc1O)C(=O)C(C)(c1ccc(O)c(O)c1)C=C2C(C)C (racemic),0.97 µM

# Same assay, conditions: primary neocortical neuron
row,Structure (SMILES),IC50
1,NC1=N[C@H](O)[C@H]2[C@H]3O[C@]4(O)O[C@@H]([C@@H](O)[C@@]2(N1)[C@@H]4O)[C@]3(O)CO [TETRODOTOXIN],0.00493 µM

# Assay: Neuroprotective activity in primary neocortical neuron (unknown origin) assessed as inhibition of 4-AP-induced spontaneous calcium channel oscillation amplitude measured after 15 min by Fluo-4AM dye based fluorescence assay
# Assay type: functional, cell-based
# Conditions: Primary neocortical neuron, 0.25 h
row,Structure (SMILES),IC50
1,Cc1cc2c(cc1O)C(=O)[C@](C)(c1ccc(O)c(O)c1)C=C2C(C)C,8.03 µM
2,Cc1cc2c(cc1O)C(C)(c1ccc(O)c(O)c1)C(=O)C=C2C(C)C (racemic),5.56 µM
3,Cc1cc2c(cc1O)C(=O)[C@@](C)(c1ccc(O)c(O)c1)C=C2C(C)C,5.77 µM
4,Cc1cc2c(cc1O)[C@@](C)(c1ccc(O)c(O)c1)C(=O)C=C2C(C)C,7.38 µM
5,Cc1cc2c(cc1O)[C@](C)(c1ccc(O)c(O)c1)C(=O)C=C2C(C)C,5.36 µM
6,Cc1cc2c(cc1O)C(=O)C(C)(c1ccc(O)c(O)c1)C=C2C(C)C (racemic),6.1 µM

# Same assay, conditions: primary neocortical neuron
row,Structure (SMILES),IC50
1,NC1=N[C@H](O)[C@H]2[C@H]3O[C@]4(O)O[C@@H]([C@@H](O)[C@@]2(N1)[C@@H]4O)[C@]3(O)CO [TETRODOTOXIN],0.00169 µM
